Experimental findings from patent US11371055B2, “Herbicide resistance genes” (CORTEVA AGRISCIENCE LLC, priority 2005, dated 2022) are described below.

Assay [1] concerns AAD-12 (v1) T1 tobacco plants. Put plainly: Cross tolerance of T1 tobacco to phenoxy and pyridyloxy auxin herbicides. In kind it is in vivo, Nicotiana tabacum. From the text: Two to four T0 individuals surviving high rates of 2,4-D and fluroxypyr were saved from each event and allowed to self fertilize in the greenhouse to give rise to T1 seed. The T1 seed was stratified, and sown into selection trays much like that of Arabidopsis (Example 7.4), followed by selective removal of untransformed nulls in this segregating population with 560 g ai/ha glufosinate (PAT gene selection). Survivors were transferred to individual 3-inch pots in the greenhouse. These lines provided high levels of resistance to 2,4-D in the T0 generation. Improved consistency of response is anticipated in T1 plants not having come directly from tissue culture. These plants were compared against wildtype KY160 tobacco. All plants were sprayed with a track sprayer set at 187 L/ha. The plants were sprayed from a range of 140-2240 g ac/ha 2,4-D dimethylamine salt (DMA), 70-1120 g ace/ha triclopyr or 35-560 g ae/ha fluroxypyr. All applications were formulated in water. Each treatment was replicated 2-4 times. Plants were evaluated at 3 and 14 days after treatment. Plants were assigned injury rating with respect to stunting, chlorosis, and necrosis. The T1 generation is segregating, so some variable response is expected due to difference in zygosity.

For assay [2], the system named is AAD-12 (v1) (pDAS1580) T2 tobacco plants. The experiment in a line: Auxinic herbicide cross tolerance of stacked tobacco, AAD-12 T2. In kind it is in vivo, Nicotiana tabacum. The protocol:
(§1) Homozygous AAD-12 (v1) (pDAS1580) and AAD-1 (v3) (pDAB721) plants (see PCT/US2005/014737 for the latter) were both reciprocally crossed and F1 seed was collected. The F1 seed from two reciprocal crosses of each gene were stratified and treated 4 reps of each cross were treated under the same spray regimen as used for the other testing with one of the following treatments: 70, 140, 280 g ac/ha fluroxypyr (selective for the AAD-12 (v1) gene); 280, 560, 1120 g ae/ha R-dichloroprop (selective for the AAD-1 (v3) gene); or 560, 1120, 2240 g ae/ha 2,4-D DMA (to confirm 2,4-D tolerance). Homozygous T2 plants of each gene were also planted for use as controls. Plants were graded at 3 and 14 DAT.

In assay [3] the test system is AAD-12 x AAD-1 F1 cross tobacco. Put plainly: Auxinic herbicide cross tolerance of stacked tobacco, F1 cross. In kind it is in vivo, Nicotiana tabacum. Conditions: AAD-12 (v1) x AAD (v3) F1. Here is the method: as §1
The test system of assay [4] is wild-type tobacco line (KY160). Put plainly: Field tolerance of tobacco, wild-type line. The settings on record: for injury: 14 DAT; for Average % Injury across locations at 14 DAT: Wild type. Format: in vivo, Nicotiana tabacum. The protocol:
Field level tolerance trials were conducted on three AAD-12 (v1) lines (events pDAS1580-[1]-018.001, pDAS1580-[1]-004.001 and pDAS1580-[1]-020.016) and one wild-type line (KY160) at field stations in Indiana and Mississippi. Tobacco transplants were grown in the greenhouse by planting T1 seed in 72 well transplant flats (Hummert International) containing Metro 360 media according to growing conditions indicated above. The null plants were selectively removed by Liberty selection as previously described. The transplant plants were transported to the field stations and planted at either 14 or 24 inches apart using industrial vegetable planters. Drip irrigation at the Mississippi site and overhead irrigation at the Indiana site were used to keep plants growing vigorously.
The experimental design was a split plot design with 4 replications. The main plot was herbicide treatment and the sub-plot was tobacco line. The herbicide treatments were 2,4-D (dimethylamine salt) at 280, 560, 1120, 2240 and 4480 g ac/ha, triclopyr at 840 g ae/ha, fluroxypyr at 280 g ac/ha and an untreated control. Plots were one row by 25-30 ft. Herbicide treatments were applied 3-4 weeks after transplanting using compressed air backpack sprayer delivering 187 L/ha carrier volume at 130-200 kpa pressure. Visual rating of injury, growth inhibition, and epinasty were taken at 7, 14 and 21 days after treatment.

Assay [5] relates to AAD-12 (v1) pDAB4101 corn events (4101(0)003.R.003.AF and 4101(0)005.R001.AF). The experiment in a line: Field tolerance of corn: visual injury and brace root injury, AAD-12 events. Format: in vivo, Zea mays. The protocol:
Seeds were planted with cone planter on 40-inch row spacing at Wayside and 30 inch spacing at Fowler. […] Herbicide treatments were 2,4-D (dimethylamine salt) at 1120, 2240 and 4480 g ae/ha, triclopyr at 840 g ae/ha, fluroxypyr at 280 g ae/ha and an untreated control. The AAD-12 (v1) events contained the AHAS gene as a selectable marker. The F2 corn events were segregating so the AAD-12 (v1) plants were treated with imazethapyr at 70 g ae/ha to remove the null plants. Herbicide treatments were applied when corn reached the V6 stage using compressed air backpack sprayer delivering 187 L/ha carrier volume at 130-200 kpa pressure. […]

In assay [6] the test system is AAD-12 (v1) canola events 3759(20)018.001 and 3759(18)030.001. The experiment in a line: Field tolerance of canola, AAD-12 events. Format: in vivo, Brassica napus. The protocol:
Field level tolerance trial was conducted on two AAD-12 (v1) events 3759(20)018.001 and 3759(18)030.001 and a wild-type canola (Nex710) in Fowler, Ind. The experimental design was a randomized complete block design with 3 replications. Herbicide treatments were 2,4-D (dimethylamine salt) at 280, 560, 1120, 2240 and 4480 g ac/ha, triclopyr at 840 g ae/ha, fluroxypyr at 280 g ae/ha and an untreated control. Within each herbicide treatment, single 20 ft row/event for event 3759(18)030.0011, 3759(18)018.001 and wild-type line (Nex710) were planted with a 4 row drill on 8 inch row spacing. Herbicide treatments were applied when canola reached the 4-6 leaf stage using compressed air backpack sprayer delivering 187 L/ha carrier volume at 130-200 kpa pressure. […]

[7] abbreviates: Fluroxypyr at 280 g ae/ha, 5DAT.
The mark [8] stands for this setting: 2× rate of triclopyr (840 g ae/ha), 14 DAT.

For the compound `CNC.O=C(O)COc1ccc(Cl)cc1Cl` [2,4-D DMA], the “Average % Injury of Replicates 14 DAT” value is listed as 0% in assay [1] (T1 1580(1)-004, 140 g ae/ha); 0% in assay [1] (T1 1580(1)-004, 560 g ae/ha); 0% in assay [1] (T1 1580(1)-004, 2240 g ae/ha); 0% in assay [1] (T1 1580(1)-018, 140 g ae/ha); 0% in assay [1] (T1 1580(1)-018, 560 g ae/ha); 0% in assay [1] (T1 1580(1)-018, 2240 g ae/ha).
As for `C[C@@H](Oc1ccc(Cl)cc1Cl)C(=O)O` [(R)-dichlorprop, R-2,4-dichlorophenoxypropionic acid], the “Average % injury 14 DAT” value is 15% in assay [2] (280 g ae/ha); 50% in assay [2] (560 g ae/ha); 70% in assay [2] (1120 g ae/ha); 0% in assay [3] (280 g ae/ha); 0% in assay [3] (560 g ae/ha); 0% in assay [3] (1120 g ae/ha).
Turning to `Nc1c(Cl)c(F)nc(OCC(=O)O)c1Cl` [Fluroxypyr], the “Average % injury 14 DAT” value in assay [2] (70 g ae/ha), in assay [2] (140 g ae/ha), in assay [3] (70 g ae/ha) and in assay [3] (140 g ae/ha) was 0% each time. Moreover, the injury was 99% in assay [4] (Fluroxypyr at 280 g ae/ha) and “greatest injury” in assay [1] (35-560 g ae/ha fluroxypyr). Also, the “Average % Injury across locations at 14 DAT” value in assay [4] (280 GM AE/HA) is 99%. Further, the “Average % Injury of Replicates 14 DAT” value amounted to 0% in assay [1] (T1 1580(1)-004, 35 g ae/ha); 0% in assay [1] (T1 1580(1)-004, 140 g ae/ha); 3% in assay [1] (T1 1580(1)-004, 560 g ae/ha); 8% in assay [1] (T1 1580(1)-018, 35 g ae/ha); 10% in assay [1] (T1 1580(1)-018, 140 g ae/ha); 18% in assay [1] (T1 1580(1)-018, 560 g ae/ha). The “% Visual Injury 14DAT” value is reported as 1% in assay [5] (AAD-12 4101(0)003.R.003.AF, 280 g ae/ha) and 5% in assay [5] (AAD-12 4101(0)005.001.AF, 280 g ae/ha). The “Brace Root Injury Rating (0-10 scale) 28DAT” value came out at 0 in assay [5] (AAD-12 event 4101(0)003.R.003.AF, 280 g ae/ha) and 0 in assay [5] (AAD-12 event 4101(0)005.001.AF, 280 g ae/ha). Also, in assay [5] (Fluroxypyr at 280 g ae/ha), the brace root injury result was “no brace root injury”. In addition, in assay [5] (setting [7]), the “visual injury, average” value is on record as 8%. Besides, the “% Visual Injury at 14 DAT” value in assay [6] (AAD-12 event 3759(18)030.001, 280 GM AE/HA) was 8 a %; in assay [6] (AAD-12 event 3759(20)018.001, 280 GM AE/HA), 7 a %. The compound further had an average injury in assay [6] (setting [7]) of 8%.
Consider `O=C(O)COc1nc(Cl)c(Cl)cc1Cl` [triclopyr], for which the injury in assay [4] (2× rate of triclopyr (840 g ae/ha)) is on record as 53%; in assay [1] (70-1120 g ae/ha triclopyr, in one event line), “Some injury”. Moreover, the “Average % Injury across locations at 14 DAT” value in assay [4] (840 GM AE/HA) amounted to 53%. For the same compound, the “Average % Injury of Replicates 14 DAT” value was found to be 0% in assay [1] (T1 1580(1)-004, 70 g ae/ha); 0% in assay [1] (T1 1580(1)-004, 280 g ae/ha); 0% in assay [1] (T1 1580(1)-004, 1120 g ae/ha); 5% in assay [1] (T1 1580(1)-018, 70 g ae/ha); 5% in assay [1] (T1 1580(1)-018, 280 g ae/ha); 8% in assay [1] (T1 1580(1)-018, 1120 g ae/ha). The “visual injury, average across the two events” value in assay [5] (setting [8]) worked out at 3%. Further, the “% Visual Injury 14DAT” value in assay [5] (AAD-12 4101(0)003.R.003.AF, 840 g ae/ha) worked out at 3%; in assay [5] (AAD-12 4101(0)005.001.AF, 840 g ae/ha) it was 4%. Moreover, the “Brace Root Injury Rating (0-10 scale) 28DAT” value in assay [5] (AAD-12 event 4101(0)003.R.003.AF, 840 g ae/ha) is listed as 0; in assay [5] (AAD-12 event 4101(0)005.001.AF, 840 g ae/ha), 0. For the same compound, the brace root injury entry in assay [5] (Triclopyr at 840 g ae/ha) is “no brace root injury”. In addition, in assay [6] (setting [8]), the “average injury across the two events” value is listed as 6%. Also, the “% Visual Injury at 14 DAT” value in assay [6] (AAD-12 event 3759(18)030.001, 840 GM AE/HA) is 6 ab %; in assay [6] (AAD-12 event 3759(20)018.001, 840 GM AE/HA), 6 a %.
